Consider two molecules from paper PMC11443414 (RSC Advances, 2024).

Where a name gives a salt, the structure may show the parent alone.

Experiment [1] deals with T1, urease subunit gamma (UreA) (Staphylococcus aureus, UniProt Q6GEE6).
T1 sequence (Q6GEE6 1-100): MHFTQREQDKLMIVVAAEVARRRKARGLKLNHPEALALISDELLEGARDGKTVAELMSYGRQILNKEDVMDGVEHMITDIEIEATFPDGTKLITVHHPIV
Type of experiment: binding.

Experiment [2] addresses T1, urease subunit gamma (UreA). Description: DSF titration. Type of experiment: binding.

Consider `CCOc1ccc(/C=C2\NCCc3cc(OCC)c(OCC)cc32)cc1OCC` [compound 2, Drotaverine HCl], for which the “STD-NMR (individual, group epitope mapping); DSF Tm shift” value in experiment [1] is “Its GEM analysis indicated that CH2-18 received the highest saturation from the protein”.

The Kd is the constant that tells how readily two partners part at equilibrium. The low end stands for tighter binding, the high end for weaker binding. In experiment [2], `O=C(O)c1cccnc1` [compound 11, Nicotinic acid] came in with a Kd of 70 mM.
